Experimental data as given in patent publication US7271153B2, “Nitrogenous heterocyclic derivatives, medicinal compositions containing the same, medicinal uses thereof, and intermediates therefor” (Kissei Pharmaceutical Co., Ltd., priority 2001, dated 2007).

biological target: T1, human SGLT2 (Homo sapiens, UniProt P31639, I433V); assay: Assay for inhibitory effect on human SGLT2 activity (uptake of methyl-α-D-glucopyranoside in COS-7 cells expressing transiently human SGLT2); format: cell-based; conditions: methyl-α-D-(U-14C)glucopyranoside uptake, 37° C., 2 hours, read-out: IC50 (concentration at which 50% of methyl-α-D-glucopyranoside uptake was inhibited)
T1 construct: expressed in transfected cells; host or cells: COS-7 cells (RIKEN CELL BANK RCB0539), transient electroporation with plasmid KL29
T1 sequence (P31639 1-672 I433V): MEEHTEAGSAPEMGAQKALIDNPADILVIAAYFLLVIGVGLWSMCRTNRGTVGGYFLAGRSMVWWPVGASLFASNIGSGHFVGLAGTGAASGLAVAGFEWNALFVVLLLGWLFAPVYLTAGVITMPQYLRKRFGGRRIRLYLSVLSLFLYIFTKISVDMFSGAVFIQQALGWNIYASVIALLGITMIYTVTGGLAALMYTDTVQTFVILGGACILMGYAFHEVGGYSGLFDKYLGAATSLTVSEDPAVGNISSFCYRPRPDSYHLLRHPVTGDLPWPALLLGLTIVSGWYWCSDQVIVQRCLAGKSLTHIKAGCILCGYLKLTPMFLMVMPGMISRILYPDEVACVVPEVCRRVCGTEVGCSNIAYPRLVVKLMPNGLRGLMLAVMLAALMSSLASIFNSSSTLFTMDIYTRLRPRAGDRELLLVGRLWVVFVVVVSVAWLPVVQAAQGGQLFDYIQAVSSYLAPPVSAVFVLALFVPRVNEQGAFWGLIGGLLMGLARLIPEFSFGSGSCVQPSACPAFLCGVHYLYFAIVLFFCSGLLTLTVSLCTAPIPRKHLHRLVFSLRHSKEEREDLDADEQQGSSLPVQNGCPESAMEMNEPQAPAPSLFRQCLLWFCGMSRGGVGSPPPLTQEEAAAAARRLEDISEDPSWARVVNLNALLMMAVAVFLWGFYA
Description: Assay for Inhibitory Effect on Human SGLT2 Activity
1) Construction of the Plasmid Vector Expressing Human SGLT2
Preparation of the cDNA library for PCR amplification was performed by reverse transcription of a total RNA deprived from human kidney (Ori gene) with oligo dT as the primer, using SUPERSCRIPT Preamplification System (Gibco-BRL: LIFE TECHNOLOGIES). The DNA fragment coding for human SGLT2 was amplified by the PCR reaction using Pfu DNA Polymerase (made by Stratagene), in which the human kidney cDNA library described above was used as the template and the following oligo nucleotides 0702F and 0712R, presented as Sequence Numbers 1 and 2 respectively, were used as the primers. The amplified DNA fragment was ligated into pCR-Blunt (Invitrogen), a vector for cloning, according to standard method of the kit. The Escherichia coli HB101 Competent Cell (made by TOYOBO Co., Ltd.) was transformed according to usual method and then selection of the transformants was performed on the LB agar medium containing 50 μg/mL of kanamycin. After plasmid DNA was extracted and purified from the one of the transformants, amplifying of the DNA fragment coding for human SGLT2 was performed by the PCR reaction using Pfu DNA Polymerase (made by Stratagene), in which the following oligo nucleotides 0714F and 0715R, presented as Sequence Numbers 3 and 4 respectively, were used as the primers. The amplified DNA fragment was digested with restriction enzymes, Xho I and Hind III, and then purified with Wizard Purification System (Promega). This purified DNA fragment was inserted at the corresponding restriction sites of pcDNA3.1 (−) Myc/His—A (Invitrogen), avector for expressing of fusion protein. The Escherichia coli HB101 Competent Cell (made by TOYOBO Co., Ltd.) was transformed according to usual method and then selection of the transformant was performed on the LB agar medium containing 100 μg/mL of ampicillin. After plasmid DNA was extracted and purified from this transformant, the base sequence of the DNA fragment inserted at the multi-cloning sites of the vector pcDNA3.1 (−) Myc/His—A was analyzed. […] Sequentially, a clone in which valine is substituted for isoleucine-433 was obtained. This plasmid-vector expressing human SGLT2 in which the peptide presented as Sequence Number 5 is fused to the carboxyl terminal alanine residue was designated KL29.
2) Preparation of the Cells Expressing Transiently Human SGLT2
KL29, the plasmid coding human SGLT2, was transfected into COS-7 cells (RIKEN CELL BANK RCB0539) by electroporation. Electroporation was performed with GENE PULSER II (Bio-Rad Laboratories) under the condition: 0.290 kV, 975 μF, 2×10^6 cells of COS-7 cell and 20 μg of KL29 in 500 μL of OPTI-MEM I medium (Gibco-BRL: LIFE TECHNOLOGIES) in the 0.4 cm type cuvette. […]

| IC50 [µM] | SMILES |
| --- | --- |
| 0.041 | CCc1ccc(Cc2c(C)cc(C)nc2O[C@@H]2O[C@H](CO)[C@@H](O)[C@H](O)[C@H]2O)cc1 [Example 18, 3-(4-Ethylbenzyl)-2-(β-D-glucopyranosyloxy)-4,6-dimethyl-pyridine] |
| 0.045 | COc1ccc(Cc2c(C)cc(C)nc2O[C@@H]2O[C@H](CO)[C@@H](O)[C@H](O)[C@H]2O)cc1 [Example 19, 2-(β-D-Glucopyranosyloxy)-3-(4-methoxybenzyl)-4,6-dimethyl-pyridine] |
| 0.045 | Cc1cc(C)c(Cc2ccc(CCO)cc2)c(O[C@@H]2O[C@H](CO)[C@@H](O)[C@H](O)[C@H]2O)n1 [Example 20, 2-(β-D-Glucopyranosyloxy)-3-[4-(2-hydroxyethyl)benzyl]-4,6-dimethylpyridine] |
| 0.055 | COc1ccc(Cc2c(C)cc(OC)nc2O[C@@H]2O[C@H](CO)[C@@H](O)[C@H](O)[C@H]2O)cc1 [Example 21, 2-(β-D-Glucopyranosyloxy)-6-methoxy-3-(4-methoxybenzyl)-4-methylpyridine] |
